pIC50: −log10 of the molar value. Read-outs that look alike come from different tables or passages of the source.
Key:
HDAC7 = target: T1, HDAC7 (Homo sapiens, UniProt Q8WUI4); assay: HDAC biochemical activity measurement (fluorescent substrate deacetylation);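 note: fluorogenic deacetylation assay using acetyl-lysine substrate at 20 µM, enzyme and compound incubated 30 min at 37 °C, then developer added, fluorescence read at 360/460 nm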; conditions: HDAC7; 37° C. 30 minutes
T1 sequence (Q8WUI4 1-952): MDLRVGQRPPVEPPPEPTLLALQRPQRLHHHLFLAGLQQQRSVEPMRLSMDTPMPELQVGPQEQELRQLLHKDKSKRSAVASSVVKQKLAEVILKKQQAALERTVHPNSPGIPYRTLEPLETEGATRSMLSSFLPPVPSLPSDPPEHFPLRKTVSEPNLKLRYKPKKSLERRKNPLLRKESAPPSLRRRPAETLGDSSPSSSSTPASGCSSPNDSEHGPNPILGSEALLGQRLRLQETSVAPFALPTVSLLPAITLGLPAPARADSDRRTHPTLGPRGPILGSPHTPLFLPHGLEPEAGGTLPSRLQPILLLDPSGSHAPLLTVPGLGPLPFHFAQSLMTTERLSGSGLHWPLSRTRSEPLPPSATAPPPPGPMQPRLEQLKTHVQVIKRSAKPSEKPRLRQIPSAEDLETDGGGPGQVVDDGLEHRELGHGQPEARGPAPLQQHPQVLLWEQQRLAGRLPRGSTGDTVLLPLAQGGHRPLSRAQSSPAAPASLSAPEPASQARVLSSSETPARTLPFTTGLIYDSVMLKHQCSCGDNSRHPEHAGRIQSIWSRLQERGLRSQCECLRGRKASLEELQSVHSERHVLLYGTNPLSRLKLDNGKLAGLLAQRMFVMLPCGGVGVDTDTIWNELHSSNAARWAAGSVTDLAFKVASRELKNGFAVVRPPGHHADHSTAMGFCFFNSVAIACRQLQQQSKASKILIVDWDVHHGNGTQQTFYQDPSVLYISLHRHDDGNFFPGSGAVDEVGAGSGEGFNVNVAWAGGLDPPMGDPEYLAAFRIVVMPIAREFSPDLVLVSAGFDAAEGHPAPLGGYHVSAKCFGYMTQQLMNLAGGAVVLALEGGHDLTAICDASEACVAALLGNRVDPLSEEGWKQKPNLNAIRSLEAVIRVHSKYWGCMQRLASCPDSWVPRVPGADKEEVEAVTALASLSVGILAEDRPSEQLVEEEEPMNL

HDAC11 = target: T2, HDAC11 (Homo sapiens, UniProt Q96DB2); assay: as above;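 note: HDAC11 enzyme acting on an acetyl-lysine fluorogenic substrate, then a developer frees the fluorophore, read at excitation 360 nm and emission 460 nm, IC50 over a compound dilution series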
T2 sequence (Q96DB2 1-347): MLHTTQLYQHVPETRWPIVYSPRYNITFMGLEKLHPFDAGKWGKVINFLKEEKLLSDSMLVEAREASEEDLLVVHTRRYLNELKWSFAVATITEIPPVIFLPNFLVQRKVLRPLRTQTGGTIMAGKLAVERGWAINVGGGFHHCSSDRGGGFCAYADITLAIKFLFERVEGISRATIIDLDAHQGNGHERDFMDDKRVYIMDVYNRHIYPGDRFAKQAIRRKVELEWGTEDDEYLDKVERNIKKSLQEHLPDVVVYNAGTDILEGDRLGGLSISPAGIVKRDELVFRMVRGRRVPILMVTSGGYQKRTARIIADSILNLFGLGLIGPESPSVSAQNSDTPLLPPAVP

[1] = test system: N-87 (human gastric cancer cells); assay: MTT cancer cell growth inhibition; type: cell-based; conditions: Homo sapiens, 72 h, MTT, 72 hours incubation, N-87 cells; read-out: GI50 N-87
Method in brief: (§1)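 Using a 72 h MTT format, triplicate wells of 1500 cells received compound concentrations from 10^−5 to 10^−10 M. Formazan was read at 570 nm after DMSO dissolution, and GI50 was derived from viability.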

[2] = test system: H1975 (non-small cell lung adenocarcinoma); assay: MTT cancer cell growth inhibition; type: cell-based; conditions: Homo sapiens, NCI-H1975, 72 h, MTT, 72 hours incubation, H1975 cells; read-out: GI50 H1975
Method in brief: as §1

[3] = test system: K562 (human leukemia cells); assay: MTT cancer cell growth inhibition; type: cell-based; conditions: Homo sapiens, K562, 72 h, MTT, 72 hours incubation, K562 cells; read-out: GI50 K562
Method in brief: as §1

[4] = test system: Hela (human cervical cancer cells); assay: MTT cancer cell growth inhibition; type: cell-based; conditions: Homo sapiens, HeLa, 72 h, MTT
Method in brief: as §1

[5] = test system: SGC-7901 (human gastric cancer cells); assay: MTT cancer cell growth inhibition; type: cell-based; conditions: Homo sapiens, SGC-7901, 72 h, MTT, 72 hours incubation, SGC-7901 cells; read-out: GI50 SGC-7901
Method in brief: as §1

[6] = test system: HCC827 (human non-small cell lung cancer cells); assay: MTT cancer cell growth inhibition; type: cell-based; conditions: Homo sapiens, HCC827, 72 h, MTT, 72 hours incubation, HCC827 cells; read-out: GI50 HCC827
Method in brief: as §1

[7] = test system: HT1080 (human fibrosarcoma cells); assay: MTT cancer cell growth inhibition; type: cell-based; conditions: Homo sapiens, HT-1080, 72 h, MTT
Method in brief: as §1

[8] = test system: KBM-5 (human chronic myelogenous leukemia); assay: MTT cancer cell growth inhibition; type: cell-based; conditions: Homo sapiens, KBM5, 72 h, MTT, 72 hours incubation, KBM-5 cells; read-out: GI50 KBM-5
Method in brief: as §1

[9] = test system: MDA-MB-231 (breast cancer cells); assay: MTT cancer cell growth inhibition; type: cell-based; conditions: Homo sapiens, MDA-MB-231, 72 h, read-out: GI50 MDA-MB-231, MTT, 72 hours incubation, MDA-MB-231 cells
Method in brief: as §1

[10] = test system: KBM5-T315I (human chronic myelogenous leukemia); assay: MTT cancer cell growth inhibition; type: cell-based; conditions: Homo sapiens, 72 h, MTT, 72 hours incubation, KBM5-T315I cells; read-out: GI50 KBM5-T315I
Method in brief: as §1

HDAC2 = HDAC2 (Homo sapiens, UniProt Q92769); assay: HDAC biochemical activity measurement (fluorescent substrate deacetylation);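 note: HDAC2 enzyme with an acetyl-lysine fluorescent substrate, then developer added, fluorescence read at excitation 360 nm and emission 460 nm, inhibition measured across several compound concentrations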; conditions: 37° C. 30 minutes
[11] = Hela cells, 72 hours incubation, read-out: GI50 Hela
[12] = 72 hours, present invention, read-out: GI50 Hela, a
[13] = HT1080 cells, 72 hours incubation, read-out: GI50 HT1
[14] = 72 hours, present invention, read-out: GI50 HT1080, a
[15] = 72 hours incubation, read-out: GI50 Hela
[16] = 72 hours incubation, read-out: GI50 HT1
[17] = read-out: IC50 HDAC11, HDAC11, 37° C. 30 minutes

Sequence of HDAC2 (Q92769 whole entry, species assumed): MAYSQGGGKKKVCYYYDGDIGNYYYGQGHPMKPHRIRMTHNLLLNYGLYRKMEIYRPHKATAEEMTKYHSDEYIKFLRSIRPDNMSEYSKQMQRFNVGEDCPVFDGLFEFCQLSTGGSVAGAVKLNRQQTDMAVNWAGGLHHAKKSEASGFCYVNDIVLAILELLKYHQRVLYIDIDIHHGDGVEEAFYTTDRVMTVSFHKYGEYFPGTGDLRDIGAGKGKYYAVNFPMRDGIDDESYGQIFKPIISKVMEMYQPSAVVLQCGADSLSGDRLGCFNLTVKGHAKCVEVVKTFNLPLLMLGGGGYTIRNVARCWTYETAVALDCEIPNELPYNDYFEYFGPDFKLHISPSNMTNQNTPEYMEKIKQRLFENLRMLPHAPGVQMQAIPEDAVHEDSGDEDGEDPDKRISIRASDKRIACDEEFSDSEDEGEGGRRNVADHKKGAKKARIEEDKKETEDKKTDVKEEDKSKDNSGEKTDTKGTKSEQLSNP

SMILES | IC50 HDAC7 (HDAC7) | pIC50 (HDAC11) | GI50 [1] | GI50 [2] | GI50 [3] | GI50 [4, 11] | GI50 [4, 12] | GI50 [5] | GI50 [6] | GI50 [7, 13] | GI50 [7, 14] | GI50 [8] | GI50 [9] | GI50 [10] | pIC50 (HDAC2) | GI50 [4, 15] | GI50 [7, 16] | pIC50 (HDAC11; [17])
C/C=C1\NC(=O)c2cccc(n2)CNC(=O)C[C@@H](/C=C/CCSC(=O)CCCCCCC)OC(=O)[C@H](CSCC)NC1=O [Compound 242] | no activity | 7.17 | 31 nM | 21 nM | 55 nM | 80 nM | 88 nM | 32 nM | 79 nM | 30 nM | 330 nM | 56 nM | 16 nM | 33 nM | 7.37 |  |  | 
C/C=C1\NC(=O)c2cc(F)cc(n2)CCNC(=O)C[C@@H](/C=C/CCSC(C)=O)OC(=O)[C@H](C(C)C)NC1=O [Compound 104] | no activity | 7.08 | 96 nM | 38 nM | 33 nM |  |  | 26 nM | 49 nM |  |  | 79 nM | 20 nM | 68 nM | 7.59 | 30 nM | 90 nM | 
C/C=C1\NC(=O)c2cc(F)cc(n2)CNC(=O)C[C@@H](/C=C/CCSC(=O)CCCCCCC)OC(=O)[C@H](C)NC1=O [Compound 61] | no activity |  | 75 nM | 53 nM | 34 nM |  |  | 38 nM | 67 nM |  |  | 81 nM | 38 nM | 94 nM | 7.42 | 80 nM | 60 nM | 7.08
C/C=C1\NC(=O)c2ccc(F)c(n2)CNC(=O)C[C@@H](/C=C/CCSC(C)=O)OC(=O)[C@H](CCCCN)NC1=O [Example 74] | no activity | 6.17 | 37 nM | 29 nM | 39 nM |  |  | 49 nM | 43 nM |  |  | 37 nM | 24 nM | 350 nM | 6.89 | 30 nM | 40 nM | 
C/C=C1\NC(=O)c2nc(ccc2F)CNC(=O)C[C@@H](/C=C/CCSC(=O)CCCCCC)OC(=O)[C@H](C(C)C)NC1=O [Compound 33] | no activity |  | 61 nM | 26 nM | 16 nM |  |  | 52 nM | 83 nM |  |  | 83 nM | 31 nM | 51 nM | 7.37 | 80 nM | 80 nM | 7.05
C/C=C1\NC(=O)c2nc(ccc2C)CNC(=O)C[C@@H](/C=C/CCSC(C)=O)OC(=O)[C@H](Cc2ccccc2)NC1=O [Compound 66] | no activity |  | 61 nM | 27 nM | 37 nM |  |  | 25 nM | 34 nM |  |  | 91 nM | 38 nM | 31 nM | 7.80 | 90 nM | 30 nM | 7.03
C/C=C1\NC(=O)c2nc(ccc2C)CNC(=O)C[C@@H](/C=C/CCSC(=O)CCCCCCC)OC(=O)[C@H](C(C)C)NC1=O [Compound 243] | no activity |  | 23 nM | 43 nM | 32 nM | 230 nM | 230 nM | 25 nM | 37 nM | 840 nM | 840 nM | 93 nM | 93 nM | 45 nM | 7.25 |  |  | 6.73
C/C=C1\NC(=O)c2nc(ccc2F)CNC(=O)C[C@@H](/C=C/CCSC(=O)CC)OC(=O)[C@H](C(C)C)NC1=O [Example 45] | no activity | 7.04 | 67 nM | 34 nM | 33 nM |  |  | 43 nM | 61 nM |  |  | 94 nM | 37 nM | 59 nM | 7.49 | 90 nM | 60 nM | 
C/C=C1\NC(=O)c2cc(F)cc(n2)CNC(=O)C[C@@H](/C=C/CCSC(C)=O)OC(=O)[C@H](CC)NC1=O [Compound 58] | no activity |  | 61 nM | 61 nM | 26 nM |  |  | 51 nM | 49 nM |  |  | 69 nM | 39 nM | 82 nM | 7.68 | 60 nM | 40 nM | 7.01
C/C=C1\NC(=O)c2cccc(n2)CNC(=O)C[C@@H](/C=C/CCSC(=O)CCCCCCC)OC(=O)[C@H](CC(C)C)NC1=O [Compound 241] | no activity | 7.16 | 57 nM | 51 nM | 41 nM | 11 nM | 11 nM | 63 nM | 34 nM | 30 nM | 34 nM | 71 nM | 29 nM | 82 nM | 7.44 |  |  | 
CCCCCCCC(=O)SCC/C=C/[C@@H]1CC(=O)NCc2cccc(n2)C(=O)NCC(=O)N[C@@H](C(C)C)C(=O)O1 [Compound 246] | no activity |  | 41 nM | 63 nM | 12 nM | 10 nM | 13 nM | 32 nM | 53 nM | 10 nM | 17 nM | 56 nM | 47 nM | 33 nM | 7.16 |  |  | 6.63
